For 5 compounds, inhibition results are on record in article PMC8405091, “Microwave-assisted Phospha-Michael addition reactions in the 13α-oestrone series and in vitro antiproliferative properties” (Journal of Enzyme Inhibition and Medicinal Chemistry, 2021).

Structures are written as SMILES.

Common to all, as to format: cell-based, human
One test has as its system MCF-7 cells. Kind of test: MTT antiproliferative assay, MCF-7. The following applies: Homo sapiens, MCF7, 72 h, read-out: Growth inhibition, % ± SEM, 72 h; for inhibition at 10 µM: MCF-7, 10 μM; for inhibition at 30 µM: MCF-7, 30 μM. How it is done: (§1) The antiproliferative properties of the newly synthesized compounds (9–20) and their starting materials (4 and 5) were determined on a panel of human adherent cancer cell lines. MCF-7, MDA-MB-231 and T47D were isolated from breast cancers differing in biochemical background, while A2780 cells were isolated from ovarian cancer. HeLa and SiHa are cervical cancer cell lines positive for HPV-18 and HPV-16, respectively, while C33-A cervical cancer cells are negative for HPV. Moreover, two oropharyngeal cancer cell lines were also utilized: the HPV-negative UPCI-SCC-131 and HPV-16 positive UPCI-SCC-154. The cancer selectivity of compounds was tested on the non-cancerous mouse embryo fibroblast cell line NIH/3T3. All cell lines were purchased from European Collection of Cell Cultures (ECCAC, Salisbury, UK) exception for SiHa and C33-A (American Tissue Culture Collection, Manassas, VA, USA) and HN-SCC-131 and UPCI-SCC-154 (German Collection of Microorganisms and Cell Cultures GmbH, Braunschweig, Germany). Cells were cultivated in minimal essential medium supplemented with 10% fetal bovine serum, 1% non-essential amino acids and an antibiotic–antimycotic mixture. The medium of oropharyngeal cancer cells additionally contained 2.0 mM L-glutamine. All media and supplements were obtained from Lonza Group Ltd., Basel, Switzerland. Near-confluent cancer cells were seeded onto a 96-well microplate at a density of 5,000 cells/well, except for C33-A which were seeded at 10,000/well. After overnight standing, new medium containing the tested compounds at 10 and 30 µM final concentration was added. After incubation for 72 h at 37 °C in humidified air containing 5% CO2, the living cells were assayed by the addition of 20 μL of 5 mg/ml 3-(4,5-dimethylthiazol-2-yl)-2,5-diphenyltetrazolium bromide (MTT) solution. MTT was converted by intact mitochondrial reductase and precipitated as purple crystals during a 4-h contact period. The medium was next removed and the precipitated formazan crystals were dissolved in 100 μL of DMSO during a 60-min period of shaking at 37 ^оC.
(§2) All in vitro experiments were carried out twice with five parallels. Stock solutions of the tested substances (10 mM) were prepared in DMSO. […] Cisplatin (Ebewe Pharma GmbH, Unterach, Austria) was used as positive control.

The next test concerns HeLa cells. Put plainly: MTT antiproliferative assay, HeLa. As to conditions: Homo sapiens, 72 h; for inhibition at 10 µM: read-out: Growth inhibition, % ± SEM, 10 μM; for inhibition at 30 µM: read-out: Growth inhibition, % ± SEM, 30 μM. As for the experimental part: as §1, §2
In a further test the test system is UPCI-SCC-154 cells. Put plainly: MTT antiproliferative assay, UPCI-SCC-154. As to conditions: Homo sapiens, 72 h, read-out: Growth inhibition, % ± SEM, 72 h; for inhibition at 10 µM: UPCI-SCC-154, 10 μM; for inhibition at 30 µM: UPCI-SCC-154, 30 μM. As for the experimental part: as §1, §2
For a further test, the system named is A2780 cells. Put plainly: MTT antiproliferative assay, A2780. The following applies: Homo sapiens, A2780, 72 h, read-out: Growth inhibition, % ± SEM, 72 h; for inhibition at 10 µM: A2780, 10 μM; for inhibition at 30 µM: A2780, 30 μM. As for the experimental part: as §1, §2
The next test deals with MDA-MB-231 cells. Put plainly: MTT antiproliferative assay, MDA-MB-231. The following applies: Homo sapiens, MDA-MB-231, 72 h, read-out: Growth inhibition; % ± SEM. As for the experimental part: as §1, §2
The test system of the next test is UPCI-SCC-131 cells. Put plainly: MTT antiproliferative assay, UPCI-SCC-131. As to conditions: Homo sapiens, 72 h, read-out: Growth inhibition, % ± SEM, 72 h; for inhibition at 10 µM: UPCI-SCC-131, 10 μM; for inhibition at 30 µM: UPCI-SCC-131, 30 μM. As for the experimental part:
as §1, §2

In the next test the test system is SiHa cells. Kind of test: MTT antiproliferative assay, SiHa. As to conditions: Homo sapiens, 72 h; for inhibition at 10 µM: read-out: Growth inhibition, % ± SEM, 10 μM; for inhibition at 30 µM: read-out: Growth inhibition, % ± SEM, 30 μM. As for the experimental part: as §1, §2
The test system of the next test is T47D cells. Put plainly: MTT antiproliferative assay, T47D. The following applies: Homo sapiens, 72 h; for inhibition at 10 µM: read-out: Growth inhibition, % ± SEM, 10 μM; for inhibition at 30 µM: read-out: Growth inhibition, % ± SEM, 30 μM. As for the experimental part:
as §1, §2

Another test relates to C33-A cells. Kind of test: MTT antiproliferative assay, C33-A. The following applies: Homo sapiens, C-33-A, 72 h; for inhibition at 10 µM: read-out: Growth inhibition, % ± SEM, C33-A, 10 μM; for inhibition at 30 µM: read-out: Growth inhibition, % ± SEM, C33-A, 30 μM. As for the experimental part: as §1, §2

Regarding `COc1ccc2c(c1)CC[C@@H]1[C@@H]2CC[C@@]2(C)C(=O)[C@@H](CP(=O)(c3ccccc3)c3ccccc3)C[C@@H]12` [Compound 10, [(3-methoxy-17-oxo-13α-oestra-1,3,5(10)-trien-16β-yl)methyl]diphenylphosphine oxide], the inhibition at 10 µM in the test on MCF-7 cells is less than 20%; in the test with HeLa cells, less than 20%; in the test with UPCI-SCC-154 cells it was less than 20%; in the test with A2780 cells, less than 20%; in the test on MDA-MB-231 cells it was less than 20%; in the test with UPCI-SCC-131 cells, 39.8 ± 1.36%. In addition, the inhibition at 10 µM is less than 20% in the test on SiHa cells, less than 20% with T47D cells and 22 ± 1.84% in the test with C33-A cells. In addition, the inhibition at 30 µM in the test with MCF-7 cells is 35.9 ± 3.3%; in the test on HeLa cells, 21.5 ± 2.99%; with UPCI-SCC-154 cells, 24.3 ± 2.84%; with A2780 cells it was 64.2 ± 2.65%; with MDA-MB-231 cells, less than 20%; in the test with UPCI-SCC-131 cells, 72.9 ± 1.7%. For the same compound, the inhibition at 30 µM was less than 20% with SiHa cells, 61.1 ± 1.06% in the test on T47D cells and 27.2 ± 1.85% in the test on C33-A cells.
For the compound `C[C@@]12CC[C@@H]3c4ccc(OCc5ccccc5)cc4CC[C@H]3[C@@H]1C[C@@H](CP(=O)(c1ccccc1)c1ccccc1)C2=O` [Compound 11, [(3-benzyloxy-17-oxo-13α-oestra-1,3,5(10)-trien-16α-yl)methyl]diphenylphosphine oxide], the inhibition at 10 µM in the test with MCF-7 cells is less than 20%; with HeLa cells it was less than 20%; in the test on UPCI-SCC-154 cells, less than 20%; in the test on A2780 cells it was less than 20%; in the test on MDA-MB-231 cells, less than 20%; in the test with UPCI-SCC-131 cells, 20.9 ± 1.67%. Moreover, the inhibition at 10 µM in the test with SiHa cells was less than 20%; with T47D cells, 24.7 ± 1.7%; in the test on C33-A cells, less than 20%. Besides, the inhibition at 30 µM is 37.1 ± 0.72% with MCF-7 cells; 23.8 ± 2.11% in the test on HeLa cells; 38.6 ± 2.6% with UPCI-SCC-154 cells; 21.9 ± 2.63% in the test with A2780 cells; less than 20% in the test with MDA-MB-231 cells; 62.5 ± 1.4% in the test with UPCI-SCC-131 cells. For the same compound, the inhibition at 30 µM amounted to 30.2 ± 2.99% in the test with SiHa cells, 59 ± 1.38% in the test on T47D cells and 40.3 ± 0.95% with C33-A cells.
`Cc1ccc(P(=O)(C[C@@H]2C[C@H]3[C@@H]4CCc5cc(OCc6ccccc6)ccc5[C@H]4CC[C@@]3(C)C2=O)c2ccc(C)cc2)cc1` [Compound 15, [(3-benzyloxy-17-oxo-13α-oestra-1,3,5(10)-trien-16α-yl)methyl]di-p-tolylphosphine oxide]: the inhibition at 10 µM with MCF-7 cells was less than 20%; in the test with HeLa cells, less than 20%; with UPCI-SCC-154 cells it was less than 20%; in the test with A2780 cells it was less than 20%; in the test on MDA-MB-231 cells it was less than 20%; in the test with UPCI-SCC-131 cells, 24.6 ± 1.39%. Besides, the figures for the inhibition at 10 µM with SiHa cells, with T47D cells and with C33-A cells were less than 20%, 39.1 ± 2.01% and less than 20%, respectively. In addition, the inhibition at 30 µM in the test with MCF-7 cells was less than 20%; in the test with HeLa cells, 27.4 ± 1.57%; with UPCI-SCC-154 cells, 34.7 ± 1.36%; with A2780 cells it was 49.4 ± 2.06%; with MDA-MB-231 cells it was less than 20%; in the test on UPCI-SCC-131 cells it was 60.2 ± 1.32%. Besides, the inhibition at 30 µM in the test with SiHa cells was less than 20%; with T47D cells it was 58.5 ± 0.8%; in the test on C33-A cells it was 26.9 ± 0.84%.
In the case of `Cc1ccc(P(=O)(C[C@H]2C[C@H]3[C@@H]4CCc5cc(OCc6ccccc6)ccc5[C@H]4CC[C@@]3(C)C2=O)c2ccc(C)cc2)cc1` [Compound 16, [(3-benzyloxy-17-oxo-13α-oestra-1,3,5(10)-trien-16β-yl)methyl]di-p-tolylphosphine oxide], the inhibition at 10 µM with MCF-7 cells was less than 20%; in the test on HeLa cells, less than 20%; with UPCI-SCC-154 cells, less than 20%; in the test with A2780 cells, less than 20%; in the test on MDA-MB-231 cells it was less than 20%; in the test on UPCI-SCC-131 cells it was 49.5 ± 2.27%. The inhibition at 10 µM is less than 20% with SiHa cells, 23.6 ± 1.22% in the test on T47D cells and less than 20% with C33-A cells. The inhibition at 30 µM in the test on MCF-7 cells was less than 20%; with HeLa cells, 31.8 ± 2.27%; with UPCI-SCC-154 cells, 31.6 ± 2.41%; with A2780 cells it was 67.3 ± 3.04%; with MDA-MB-231 cells, less than 20%; with UPCI-SCC-131 cells, 67.4 ± 1.11%. Moreover, the inhibition at 30 µM in the test with SiHa cells was less than 20%; in the test with T47D cells it was 64.5 ± 1.6%; in the test on C33-A cells it was 59.1 ± 0.69%.
For the compound `COc1ccc2c(c1)CCC1C2CCC2(C)C(=O)C(CP(=O)(c3ccc4ccccc4c3)c3ccc4ccccc4c3)CC12` (stereo not drawn) [Compound 17, [(3-methoxy-17-oxo-13α-oestra-1,3,5(10)-trien-16α-yl)methyl]di(naphtalen-2-yl)phosphine oxide], the inhibition at 10 µM in the test on MCF-7 cells is less than 20%; with HeLa cells, less than 20%; in the test with UPCI-SCC-154 cells, less than 20%; with A2780 cells, less than 20%; in the test on MDA-MB-231 cells, less than 20%; in the test with UPCI-SCC-131 cells, 26.5 ± 1.7%. In addition, the inhibition at 10 µM in the test on SiHa cells, with T47D cells and in the test on C33-A cells was less than 20% throughout. Also, the inhibition at 30 µM is less than 20% with MCF-7 cells; less than 20% with HeLa cells; 20.3 ± 2.69% in the test on UPCI-SCC-154 cells; less than 20% in the test on A2780 cells; less than 20% in the test on MDA-MB-231 cells; 45.3 ± 1.84% in the test on UPCI-SCC-131 cells. The inhibition at 30 µM is less than 20% with SiHa cells, 27.1 ± 2.93% in the test on T47D cells and less than 20% with C33-A cells.
